In patent US11426441B2, “Composition comprising protein phosphatase 1 inhibitory peptide for treating vascular diseases” (BethphaGen Inc., priority 2016, dated 2022):
No end group written: not given here.

Assays:
[1] = tested on: interaction of PP1 and Akt; assay: PP1 immunoprecipitation of pulmonary tissue lysate; assay type: binding; conditions: ψPLB-SE added upon the precipitation
Description: FIGS. 16a, 16b and 16c. (16a-16b) PAECs were treated with 3 μM ψPLB-SE for 1 hour, and protein expression was quantitatively analyzed through western blotting using antibodies against Phospho-eNOS (ser1177), total eNOS, phospho-Akt (Ser473, Thr308), total Akt, and GAPDH. (16c) The pulmonary tissue lysate was subjected to immunoprecipitation using PP1 antibody to investigate the interactions of PP1 with eNOS and Akt depending on the presence or absence of the treatment with ψPLB-SE using respective antibodies therefor.
In order to intensively investigate the interactions of PP1 with eNOS and Akt, the pulmonary tissue lysate was subjected to immunoprecipitation using an antibody against PP1, and the effects of ψPLB-SE on the interactions were investigated by adding ψPLB-SE upon the precipitation. […] The activation of eNOS through the inhibition of the interaction between PP1 and Akt was supplemented through the experiments on the inhibition of the high-order kinase of Akt. The phosphorylation increases of Akt and eNOS due to the inhibition of dephosphorylation were investigated by offsetting the phosphorylation conditions of Akt through the treatment with LY294002, which is an inhibitor of phosphoinositide-3-kinase (PI3K), a known high-order kinase of Akt, at a concentration of 50 μM, followed by ψPLB-SE treatment. […]

[2] = tested on: rat aortic smooth muscle cells (RASMCs); assay: RASMC proliferation (PCNA immunostaining, EZ-CyTox cell viability assay); assay type: cell-based; conditions: synthetic conditions (10% FBS), 3 μM peptide
Description: The rat aortic smooth muscle cells (RASMCs) were isolated from the medial layer of the thoracic aorta derived from male Sprague-Dawley rats (body weight, 180-200 g) by an enzymatic reaction with collagenase (50 U/mL, Worthington) and pancreatic elastase (0.25 mg/mL, Sigma-Aldrich) for 4 hours at 37. The cells were collected and resuspended in DMEM containing 20% (v/v) fetal bovine serum. The resuspension was then plated on collagen I (Sigma-Aldrich)-coated glass coverslips and incubated at 37 in an atmosphere of 5% (v/v) CO2 and 95% (v/v) air. Human coronary smooth muscle cells (HCSMCs), pulmonary arterial endothelial cells (PAECs), and pulmonary arterial smooth muscle cells (PASMCs) were purchased from Lonza and cultured in EBM or SmBM (Lonza) supplemented with 0.5 mg/mL hEGF, […], 1 mg/mL hFGF, […] gentamicin/amphotericin-B, and 5% fetal bovine serum. All the cells were cultured at 37 in 5% (v/v) CO2 and 95% (v/v) air. RASMCs and HCSMCs were, respectively, plated at the densities of 1×10^4 cells/cm^2 and 1×10^5 cells/cm^2 for immunostaining and western blotting experiments. For RASMC and PASMC cell proliferation experiments, these cells were cultured in fetal bovine serum-free media for 3 days, and then proliferation was induced by serum addition.
Rat aortic smooth muscle cells (RASMCs) were fixed in 4% (w/v) paraformaldehyde at room temperature for 10 min, washed with PBS, and then transmitted with 0.1% (v/v) Triton X-100 in PBS for 40 min. After washing and blocking with 3% (w/v) BSA in PBS, the cells were incubated overnight at room temperature with antibodies against SERCA2a (1:250), SERCA2b (1:250), and PCNA (1:50). On the following day, the cells were washed with PBS and incubated with anti-rabbit and anti-mouse IgG conjugated to Alexa Fluor 488 and 594, respectively, for 1 hour at room temperature. The cells were treated with FluoroGuard antifade reagent (Bio-Rad, Hercules, Calif., USA), and the coverslips were examined under a fluorescent microscope. […]

cytosolic Ca^2+ level = assay: Intracellular Ca2+ measurement in RASMCs; assay type: cell-based, rat; conditions: 10% FBS, 3 μM peptide
Description: FIGS. 4a, 4b, 4c and 4d. (4a-4c) HCSMCs were pretreated with 3 μM ψPLB-SE and 15 μM MDL28170 for 1 hour, and then treated with 50 μM A23187 for 2 hours. (4a) Immunostaining was performed with antibodies against SERCA2a and SERCA2b (green). Nuclei were stained with Hoechst (blue). Representative merged images are shown. Scale bar, 50 μm. (4b) Western blot analysis was performed with cell extracts. Data are expressed as the means±SD (n=3-4; *, P<0.05). (4c) Baseline Ca^2+ concentration was measured by lonOptix calcium imaging system. (4d) RASMC were treated with ψPLB-SE or control peptide under the same conditions as described for FIG. 1B. The baseline Ca^2+ concentration was measured by lonOptix calcium imaging system (*, P<0.05).
The intracellular Ca^2+ level was measured in VSMCs by loading cells with 0.5 μM Fura2-AM (Molecular Probes, Eugene Oreg., USA), a Ca^2+-sensitive indicator, for 15 minutes at 37. The fluorescence was recorded using the lonOptix calcium imaging system. VSMCs were stimulated by the exposure to light emitted by a 75 W halogen lamp through either a 340 nm or 380 nm filter. The fluorescent emissions were detected between 480 nm and 520 nm by a photomultiplier tube after an initial illumination at 340 nm for 0.5 second and then at 380 nm during recording. […]

## RAETIEMPQ (not fully specified) [ψPLB-SE, 9-mer PP1 decoy peptide mimicking phosphorylated PLB; conjugated via GGG linker to cell penetrating peptide dNP2 or TAT]
[1]
  interaction of Akt with PP1 (immunoprecipitation): attenuated
[2]; RASMCs
  PCNA expression (active cell division): completely blocked
[2]; 24 hours
  increased proliferation of RASMCs (cell proliferation assay): inhibited
Cytosolic Ca^2+ level
  cytosolic Ca^2+ level elevated under synthetic conditions: decreased
